Results taken from patent US20160201045A1, “Endo-xylanase and Coding Gene and Use Thereof” (SHANGHAI INSTITUTES FOR BIOLOGICAL SCIENCES CHINESE ACADEMY …, priority 2013, published 2016).
One block for each molecule: values may come before it.

Tests used:
Xyl7 = test: Effect of different chemical agents and metal ions on the enzymatic activity of Xyl7; assay type: biochemical, microorganisms in termite gut; conditions: for action on Xyl7 (in words) / increase for the activity of the enzyme: 10 mmol/L; for Relative Activity (%) of Xyl7: Metal Ion or Chemical Agent 10 mM, enzyme without agent = 100%
Method: (§1) In a 100 μl reaction system, birch xylan was added to a final concentration of 1% (w/w), and Na2HPO4/NaH2PO4 buffer (pH7.0) was added to a final concentration of 100 mM. A suitable amount of enzyme solution diluted by the abovementioned buffer was added to the reaction system for reaction at 50[…] for 10 minutes. 100 μl DNS were added to stop the reaction. For the control, 100 μl DNS were firstly added to the above reaction system before adding the enzyme solution. The reaction mixtures were subjected to a boiled water bath for 5 minutes to develop color. Absorbance value at 540 nm was detected by a microplate reader. After subtracting the absorbance value of the control from that of the sample, the enzymatic activity unit (U) was calculated based on the standard curve.
Various compounds were added into the reaction system to a final concentration of 10 mmol/L. Enzymatic activity was tested according to the above standard enzymatic activity detection steps. The specific activity value of the enzyme without treated by any chemical agent or metal ion was used as a reference value and its relative activity was defined as 100%.

[1] = Detection on the optimum temperature; assay type: biochemical; conditions: compared with Xyl7
Method: as §1
Enzymatic activity was detected according the above standard enzymatic activity detection steps at pH 7.0 and a temperature in the range of 25-80° C. The optimum temperature of Xyl7 was in the range of 50-55° C., with an activity at 50[…] slightly higher than that at 55[…]. Thus, the specific activity value of the enzyme at 50[…] was used as a reference value and its relative activity was defined as 100%. The relative activity of the enzyme at each temperature was a ratio between the specific activity value of the enzyme at each temperature and the reference value.

[2] = Standard enzymatic activity detection (DNS method) on birch xylan; assay type: biochemical; conditions: standard steps: 1% birch xylan, pH7.0, 50, 10 minutes
Method: Enzymatic activity of the endo-1,4-β-xylanase was tested by a DNS method as follows:
10 g NaOH were weighed and dissolved in about 400 ml ddH2O. 10 g dinitrosalicylic acid, 2 g phenol, 0.5 g anhydrous sodium sulfite and 200 g potassium sodium tartrate tetrahydrate were weighed and dissolved in about 300 ml ddH2O. The two solutions were mixed, diluted to 1 liter and preserved in dark.
100 μl DNS were added into each of the above standard samples. The mixtures were subjected to boiled water bath for 5 minutes for developing color. Absorbance value at 540 nm was detected by a microplate reader. Standard sample 1 was a blank control. The absorbance value of the blank control was subtracted from that of each sample and then the standard curve was plotted.
as §1
Definition of enzymatic activity unit (U): 1U refers to the amount of enzyme required for catalytically hydrolyzing xylan to produce 1 μmol xylose.
Definition of specific activity unit: enzymatic activity of 1 mg protein (U/mg).
Various substrates with a final concentration of 2% (w/w) were treated by a suitable amount of enzymes at pH7.0 and 50[…] for 10 minutes. Enzymatic activity was tested according to the above standard enzymatic activity detection steps. […] No detectable enzymatic activity was found for the other test substrates. […]

increase for the activity of the enzyme (Xyl7): about 20%
Molecule: [Mn+2] [Mn^2+]
action on Xyl7 (in words) (Xyl7): could activate
Relative Activity (%) of Xyl7 (Xyl7): 125.73 ± 7.8%

Molecule: O=C(O)CN(CCN(CC(=O)O)CC(=O)O)CC(=O)O [EDTA]
action on Xyl7 (in words) (Xyl7): obviously inhibited
Relative Activity (%) of Xyl7 (Xyl7): 88.65 ± 1.62%

Molecule: [Ni+2] [Ni^2+]
action on Xyl7 (in words) (Xyl7): obviously inhibited
Relative Activity (%) of Xyl7 (Xyl7): 44.25 ± 4.98%

Molecule: [Al+3] [Al^3+]
Relative Activity (%) of Xyl7 (Xyl7): 77.68 ± 2.32%

Molecule: [Ba+2] [Ba^2+]
Relative Activity (%) of Xyl7 (Xyl7): 90.71 ± 1.94%

Molecule: [Co+2] [Co^2+]
action on Xyl7 (in words) (Xyl7): could activate
Relative Activity (%) of Xyl7 (Xyl7): 109.14 ± 3.45%

Molecule: [Ca+2] [Ca^2+]
Relative Activity (%) of Xyl7 (Xyl7): 90.1 ± 12.82%

Molecule: [Cu+2] [Cu^2+]
action on Xyl7 (in words) (Xyl7): could activate
Relative Activity (%) of Xyl7 (Xyl7): 108.69 ± 2.99%

increase for the activity of the enzyme (Xyl7): about 20%
Molecule: [K+] [K^+]
action on Xyl7 (in words) (Xyl7): could activate
Relative Activity (%) of Xyl7 (Xyl7): 125.6 ± 11.98%

Molecule: [Zn+2] [Zn^2+]
action on Xyl7 (in words) (Xyl7): obviously inhibited
Relative Activity (%) of Xyl7 (Xyl7): 64.88 ± 1.36%

Molecule: [Fe+2] [Fe^2+]
action on Xyl7 (in words) (Xyl7): obviously inhibited
Relative Activity (%) of Xyl7 (Xyl7): 25.33 ± 0.46%
Relative Activity (%) of Xyl7 (Xyl7; listed as Fe^3+): 90.41 ± 3.36%

Molecule: [Mg+2] [Mg^2+]
action on Xyl7 (in words) (Xyl7): no obvious action
Relative Activity (%) of Xyl7 (Xyl7): 101.53 ± 3.02%

B1: Xyl7R3: fragment of Xyl7 consisting of amino acids 19-272 of SEQ ID NO:2 (protein)
chain: AQGPTWTTSTIQAYNGYDYELWNQNNAGTVSMKLTGDNGSGASAVGGTFTATWSNTQNVLFRSGKKWGSSSNQNHTQIGNMSINFAATWSSTDNVKMLGVYGWAYFTSANVPTKQENGTNASFSNQIEYYIIQDRGSYNPASGGTNAKKYGSATIDGIAYDFYVCDRINQPMLTGNGNFKQFFSVPQSASAHRTSGTISVSQHFNKWHELGMKMDGPLYEVAMKVESYTGSGSSNGSATVTKNLLTIGGTTPTP
modifications: Intestinal tract metagenome of termite
optimum temperature and tolerance on temperature [1]: almost identical to those of Xyl7
specific activity by the standard enzymatic activity detection steps of Example 3 [2]: 8775 U/mg

B2: Xyl7R2: fragment of Xyl7 consisting of amino acids 19-267 of SEQ ID NO:2 (protein)
chain: AQGPTWTTSTIQAYNGYDYELWNQNNAGTVSMKLTGDNGSGASAVGGTFTATWSNTQNVLFRSGKKWGSSSNQNHTQIGNMSINFAATWSSTDNVKMLGVYGWAYFTSANVPTKQENGTNASFSNQIEYYIIQDRGSYNPASGGTNAKKYGSATIDGIAYDFYVCDRINQPMLTGNGNFKQFFSVPQSASAHRTSGTISVSQHFNKWHELGMKMDGPLYEVAMKVESYTGSGSSNGSATVTKNLLTIGG
modifications: Intestinal tract metagenome of termite
specific activity by the standard enzymatic activity detection steps of Example 3 [2]: 8560 U/mg
